In experiment [1] the test system is genotype A, "Long" strain RSV. The experiment is described as follows: RSV-A assay (CPE protection in Hep-2 cells, ATPlite readout). The experiment is classed as cell-based, Human respiratory syncytial virus (HRSV). Particulars: human respiratory syncytial virus, MOI 0.1, CPE protection. The procedure, abridged: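 Compound effect on RSV-induced CPE: Hep-2 monolayers, MOI 0.1, duplicate 2-fold titrations, 5-day culture in 10% FBS DMEM. Readout is ATP-based luminescence, normalised to virus-only and no-virus controls, giving EC50.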
In general terms: Cellular ATP, detected with luciferase, serves as a proxy for viable cell number.

In experiment [2] the test system is HMPV clinical isolate TN/1501/A1. The experiment is described as follows: HMPV antiviral assay Method-B (clinical isolate TN/1501/A1 in LLC-MK2 cells, ATP-Lite readout). The experiment is classed as cell-based, Human metapneumovirus (HMPV). Particulars: human metapneumovirus, LLC-MK2, 144 h, hMPV WT1501 (clinical isolate TN/1501/A1), 6 days. The procedure, abridged: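 LLC-MK2 cells infected in suspension with TN/1501/A1 at MOI 0.014 in serum-free medium with 2 μg/mL TPCK-trypsin (final), incubated 6 days at 37° C. Compounds tested in duplicate, 10-point 3-fold dilutions from 10 μM. Cell health read by ATP-Lite luminescence, normalised to virus-only and cells-only controls; EC50 by four-parameter logistic fit.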

Setting [3] is: genotype A “Long” strain RSV, read-out: Human RSV-A (“Long”).
[4] abbreviates: RSV-A Long strain, read-out: Human RSV-A (“Long”) EC50.

Like-named read-outs stand apart in the source and are kept apart here. A value given as a limit tells only on which side of the number the result lay.

Turning to `Cc1cnc2c(OC(F)F)cc(C(=O)NC[C@](O)(c3cc4c(c(-c5ccc(F)c(Cl)c5)n3)OC[C@]4(C)C(N)=O)C3(F)CC3)cc2c1` [Example 715], the EC50 in experiment [1] (setting [3]) is < 200 nM; in experiment [2], < 500 nM.
Taken in the same sequence, the figures for `COc1cc(C(=O)NC[C@](O)(c2cc3c(c(-c4cc(F)c(F)cc4Cl)n2)OC[C@]3(C)C(N)=O)C2CC2)cc2cn(C3(F)CC3)nc12` [Example 659] were < 200 nM and < 500 nM.
As to `COc1cc(C(=O)NC[C@](O)(c2cc3c(c(-c4ccc5c(c4)OC(F)(F)O5)n2)OC[C@@]3(C(N)=O)C(F)F)C2CC2)cc2cn(C3CC3)nc12` [Example 1011], the EC50 in experiment [1] (setting [4]) is < 200 nM; in experiment [2], < 500 nM.
In the same order, the values of `COc1cc(C(=O)NC[C@](O)(c2cc3c(c(-c4cc(F)c(Cl)cc4F)n2)OC[C@]3(C)C(N)=O)C(F)(F)F)cc2cn(C3CC3)nc12` [Example 932] are < 200 nM and < 500 nM.
With `COc1cc(C(=O)NC[C@](O)(c2cc3c(c(-c4cccc(Cl)c4F)n2)OC[C@]3(C)C(N)=O)C(F)(F)F)cc2cn(C3CC3)nc12` [Example 922], the results for the EC50 in experiment [1] (setting [4]) and in experiment [2] were < 200 nM and < 500 nM, respectively.
In the same order, the values of `COc1cc(C(=O)NCC(O)(c2cc3c(c(-c4ccc(F)c(OC(F)F)c4)n2)OC[C@]3(C)C(N)=O)C(F)(F)F)cc2cn(C3CC3)nc12` (some centres unmarked) [Example 909] are < 200 nM and > 500 nM.
In the same order, the values of `COc1cc(C(=O)NC[C@](O)(c2cc3c(c(-c4ccc(F)c(F)c4F)n2)OC[C@]3(C(N)=O)C(F)F)C(F)(F)F)cc2cc(Cl)c(C)nc12` [Example 1040] are < 200 nM and > 500 nM.
`COc1cc(C(=O)NC[C@](O)(c2cc3c(c(-c4cc(Cl)c(F)cc4F)n2)OC[C@]3(C)C(N)=O)C2CC2)cc2cn(C(F)F)nc12` [Example 662]: the EC50 in experiment [1] (setting [3]) is < 200 nM; in experiment [2], < 500 nM.
On to `C[C@]1(C(N)=O)COc2c1cc([C@@](O)(CNC(=O)c1cc(Cl)c3nn(C4CC4)cc3c1)C1CC1)nc2-c1c(F)cc(Cl)cc1F` [Example 1158], for which the EC50 in experiment [1] (setting [4]) is < 200 nM; in experiment [2], < 500 nM.
Take `Cc1cnc2c(Nc3cnccn3)cc(C(=O)NC[C@](O)(c3cc4c(c(-c5ccc6c(c5)OC(F)(F)O6)n3)OC[C@]4(C)C(N)=O)C3CC3)cc2c1` [Example 773]: the EC50 in experiment [1] (setting [3]) was < 200 nM; in experiment [2], < 500 nM.
As for `COc1cc(C(=O)NC[C@](O)(c2cc3c(c(-c4ccc(Cl)cc4F)n2)OC[C@]3(C)C(N)=O)C2CC2)cc2cn(C3CC3)nc12` [Example 873], the EC50 is < 200 nM in experiment [1] (setting [4]) and < 500 nM in experiment [2].
Consider `Cc1cnc2c(OC(F)F)cc(C(=O)NC[C@](O)(c3cc4c(c(-c5ccc(F)c(Cl)c5F)n3)OC[C@]4(C)C(N)=O)C3CC3)cc2c1` [Example 558], for which the EC50 was < 200 nM in experiment [1] (setting [3]) and < 500 nM in experiment [2].
In the case of `COc1cc(C(=O)NC[C@](O)(c2cc3c(c(-c4ccc(F)c(Cl)c4)n2)OC[C@]3(CF)C(N)=O)C(F)(F)F)cc2cc(Cl)c(C)nc12` [Example 1047], the EC50 in experiment [1] (setting [4]) is < 200 nM; in experiment [2] it was < 500 nM.
Taken in the same sequence, the figures for `COc1cc(C(=O)NC[C@](O)(c2cc3c(c(-c4ccc5c(c4)OC(F)(F)O5)n2)OC[C@]3(C(N)=O)C(F)F)C(F)(F)F)cc2cc(Cl)c(C)nc12` [Example 1036] were > 200 nM and > 500 nM.
Taken in the same sequence, the figures for `COc1cc(C(=O)NC[C@](O)(c2cc3c(c(-c4cccc(F)c4Cl)n2)OC[C@]3(C)C(N)=O)C2CC2)cc2cc(Br)cnc12` [Example 1124] were < 200 nM and < 500 nM.
Take `Cc1cnc2c(Cl)cc(C(=O)NC[C@](O)(c3cc4c(c(-c5cc(Cl)c(F)c(Cl)c5)n3)OC[C@]4(C)C(N)=O)C(F)(F)F)cc2c1` [Example 675]: the EC50 in experiment [1] (setting [3]) was < 200 nM; in experiment [2] it was > 500 nM.
With `COc1cc(C(=O)NC[C@](O)(c2cc3c(c(-c4cc(F)ccc4Cl)n2)OC[C@]3(C)C(N)=O)C(F)(F)F)cc2cn(C3CC3)nc12` [Example 991], the EC50 in experiment [1] (setting [4]) is < 200 nM; in experiment [2], < 500 nM.
For the compound `COc1cc(C(=O)NC[C@](O)(c2cc3c(c(-c4ccc(F)c(F)c4F)n2)OC[C@]3(C)C(N)=O)C2(F)CC2)cc2cn(C3CC3)nc12` [Example 729], the EC50 in experiment [1] (setting [3]) is < 200 nM; in experiment [2] it was < 500 nM.
With `COc1cc(C(=O)NC[C@](O)(c2cc3c(c(-c4ccc5c(c4)OC(F)(F)O5)n2)OC[C@]3(C)C(N)=O)C2CC2)cc2cn(C3(Cl)CC3)nc12` [Example 838], the EC50 in experiment [1] (setting [4]) was < 200 nM; in experiment [2], < 500 nM.
On to `COc1cc(C(=O)NC[C@](O)(c2cc3c(c(-c4ccc5c(c4)OC(F)(F)O5)n2)OC[C@]3(C)C(N)=O)C2(F)CC2)cc2cn(C3CC3)nc12` [Example 712], for which the EC50 in experiment [1] (setting [3]) is < 200 nM; in experiment [2], < 500 nM.
`Cc1nc2c(OC3CC3)cc(C(=O)NC[C@](O)(c3cc4c(c(-c5ccc(F)c(Cl)c5)n3)OC[C@]4(C)C(N)=O)C(F)(F)F)cc2cc1Cl` [Example 886]: the EC50 in experiment [1] (setting [4]) is < 200 nM; in experiment [2], < 500 nM.
With `COc1cc(C(=O)NC[C@](O)(c2cc3c(c(-c4ccc(F)c(F)c4Cl)n2)OC[C@]3(C)C(N)=O)C2(F)CC2)cc2cn(C3CC3)nc12` [Example 745], the values for the EC50 in experiment [1] (setting [3]) and in experiment [2] were < 200 nM and < 500 nM, respectively.
In the case of `COc1cc(C(=O)NC[C@](O)(c2cc3c(c(C4=CCC(F)(F)CC4)n2)OC[C@]3(C)C(N)=O)C(F)(F)F)cc2cn(C3CC3)nc12` [Example 1228], the EC50 is < 200 nM in experiment [1] (setting [4]) and > 500 nM in experiment [2].
`COc1cc(C(=O)NC[C@](O)(c2cc3c(c(-c4ccc(F)c(F)c4Cl)n2)OC[C@]3(C)C(N)=O)C(F)(F)F)cc2cc(Br)cnc12` [Example 778]: the EC50 in experiment [1] (setting [3]) is < 200 nM; in experiment [2] it was < 500 nM.
Taken in the same sequence, the figures for `C[C@]1(C(N)=O)COc2c1cc([C@@](O)(CNC(=O)c1ccc(F)c(NC(=O)NC3CC3)c1)C(F)(F)F)nc2-c1ccc(F)cc1` [Example 623] were < 200 nM and > 500 nM.
Consider `COc1cc(C(=O)NC[C@](O)(c2cc3c(c(-c4ccc(C#N)c(Cl)c4)n2)OC[C@]3(C)C(N)=O)C(F)(F)F)cc2cc(Cl)c(C)nc12` [Example 578], for which the EC50 in experiment [1] (setting [3]) is < 200 nM; in experiment [2] it was > 500 nM.
Consider `COc1cc(C(=O)NC[C@](O)(c2cc3c(c(-c4ccc(Cl)cc4F)n2)OC[C@]3(C)C(N)=O)C2CC2)cc2cn(C3(Cl)CC3)nc12` [Example 843], for which the EC50 in experiment [1] (setting [4]) was < 200 nM; in experiment [2], < 500 nM.
As to `COc1cc(C(=O)NC[C@](O)(c2cc3c(c(-c4ccc(C(F)(F)F)cc4)n2)OC[C@]3(C)C(N)=O)C2CC2)cc2cn(C3(F)CC3)nc12` [Example 794], the EC50 in experiment [1] (setting [3]) was < 200 nM; in experiment [2], < 500 nM.
Take `COc1cc(C(=O)NC[C@](O)(c2nc(-c3cc(Cl)c(F)cc3F)c3c(c2F)[C@@](C)(C(N)=O)CO3)C2CC2)cc2cn(C3CC3)nc12` [Example 862]: the EC50 in experiment [1] (setting [4]) was < 200 nM; in experiment [2] it was < 500 nM.
Regarding `COc1cc(C(=O)NC[C@](O)(c2cc3c(c(-c4ccc(F)c(Br)c4F)n2)OC[C@]3(C)C(N)=O)C2CC2)cc2cn(C3(F)CC3)nc12` [Example 802], the EC50 is < 200 nM in experiment [1] (setting [3]) and < 500 nM in experiment [2].
As to `COc1cc(C(=O)NC[C@](O)(c2cc3c(c(-c4ccc(F)c(F)c4F)n2)OC[C@]3(C)C(N)=O)C2CC2)cc2cc(Br)cnc12` [Example 532], the EC50 was < 200 nM in experiment [1] (setting [3]) and < 500 nM in experiment [2].

For the origin of these results see patent publication US12612412B2, “Antiviral heterocyclic compounds” (Enanta Pharmaceuticals, Inc., priority 2021, dated 2026).
